Source: US20170340636A1, “COMPOSITIONS AND METHODS FOR INHIBITION OF AUTOPHAGY” (Board of Regents, The University of Texas System, priority 2016, published 2017)

Key:
[1] = biological target: T1, TAOK2 (Rattus norvegicus, UniProt Q9JLS3); experiment: Differential scanning fluorimetry (DSF) binding assay against TAOK2; conditions: DSF melt temperature shift of TAOK2, 5 μM TAOK2, compound 1 μM
T1 construct: made in house
T1 sequence (Q9JLS3 1-320 limits assumed): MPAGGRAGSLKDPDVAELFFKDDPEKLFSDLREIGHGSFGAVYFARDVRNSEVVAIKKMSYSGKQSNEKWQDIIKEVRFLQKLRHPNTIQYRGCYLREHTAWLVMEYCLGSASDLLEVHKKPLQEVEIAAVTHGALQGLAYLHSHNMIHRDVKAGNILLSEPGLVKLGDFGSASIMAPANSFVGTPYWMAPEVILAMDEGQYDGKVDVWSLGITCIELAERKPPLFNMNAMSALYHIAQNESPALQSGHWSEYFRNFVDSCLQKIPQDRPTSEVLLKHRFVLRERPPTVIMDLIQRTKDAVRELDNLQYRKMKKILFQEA
Protocol: (§1) Differential scanning fluorimetry binding assays of selected compounds against TAOK2 were conducted to measure strength of compound binding. A solution of 5 μM TAOK2, 50 mM MgCl2, 50 mM HEPES pH 7.5, and 2.5x SyproOrange(Life Technologies) was made. Compound was added to a final concentration of 1 μM. 25 μl of the reaction solution was added to the wells of a Biorad Multiplate 96 wellclear PCR plate. The plate was covered with a Biorad Microseal ‘B’ seal. Plates were read in a Biorad CFX96 Real-Time PCR system. The temperature was increased from 4° C. to 80° C., with fluorescence measurements being taken every 0.5° C. in the 6-FAM Fluorescein channel. The fluorescence response to heat curve was fit to a binding isotherm in order to determine the inflection point, which was taken as the melt temperature (Tm).
The prevalence of multiple heterocycles in the compounds is reflective of the composition of the screen (described in Methods in Supplemental Material). These 13 compounds were purchased from Chembridge Inc. and ChemDiv Inc. for measurement of direct binding using Differential Scanning Fluorimetry (DSF). DSF measures protein melt temperature (Tm) with a lipophilic dye (SyproOrange). As the temperature of the solution is increased, measurements of dye fluorescence are taken. When the protein begins to denature, hydrophobic regions in the protein are exposed, and the dye is able to bind. This binding insulates the dye from the surrounding water, reducing quenching effects and allowing fluorescence. Binding of small molecules to protein has a stabilizing effect, and this is seen by an increase in melt temperature (Table 1). The ΔTm values ranged from 3.0 to −0.6° C. The three compounds with the highest positive shifts were SW034538, SW163112, and SW083688, with 3° C., 2.2° C., and 2° C. shifts, respectively.

[2] = biological target: T1, TAOK2; experiment: Kinase-Glo high-throughput screen / re-screen of TAOK2 activity (MBP substrate); assay type: biochemical; conditions: estimate from HTS re-screen at 1, 3.3 and 10 μM
Protocol: TAOK2 activity was screened in a high-throughput fashion using Kinase-Glo (Promega). A 20 μL, solution of 50 mM HEPES pH 7.4, 50 mM MgCl2, 1.27 mg/ml MBP and 0.005 mg/ml TAOK2 was added to each well of a 384 well Corning plate using a Biotek MultiFlo dispenser. 0.2 μl of compound (columns 3 to 22, 50 μM), DMSO negative control (columns 2, 23, and 24), or staurosporine positive control (column 1, 43.4 μM) were then added to each well with a Biomek Liquid handler. 10 μl of 50 μg/ml ATP solution was added to each well with a Labsystems Multidrop384. The plates were incubated at RT for 100 minutes. 20 μl Kinase Glo (Promega) was added to each well, and allowed to incubate for 10minutes under agitation. Luminescence was read on an Envision Multilabel plate reader.
After cherry picking primary hits, the selected compounds were assayed in a limited dose-response format (10, 3.3, and 1 μM) in triplicate using the primary enzymatic assay for TAOK2. The data for each assay well was normalized to the neutral controls. The normalized activity values (replicates) for each compound in each assay were then condensed to a single value (condensed activity) using the “Robust Condensing” method in Genedata Screener®. The condensed activity is the most representative single value of the triplicates. In general, the triplicates were pre-condensed into a pair of values as follows:
In order to study the relationship between TAOK2 and both cancer and autophagy, a high-throughput screen was performed using a 200,000 compound library to discover novel small-molecule kinase inhibitors (FIG. 1A-D). Phosphorylation reactions were performed in a 384 well format against the generic kinase substrate Myelin Basic Protein (MBP) with the addition of compound. Kinase-Glo (Promega) was then added to each well to detect remaining ATP concentration. Thus, inhibitory compounds would decrease TAOK2 activity, which would increase both remaining ATP concentration and luminescence in those wells.
After the initial screen, 1645 compounds were identified with inhibition greater than three σ above the mean DMSO control (FIG. 1A). The Z′ factor of the initial screen across all plates was 0.77, indicating high significance (FIG. 1B). These compounds were then re-screened in triplicate under the same conditions, with the compounds being assayed at three concentrations (1 μM, 3.3 μM, and 10 μM, FIG. 1C, D). 432 compounds were identified after the re-screen with average inhibitions greater than 10 sigma at the 10 μM concentration. The Z′ factor of the confirmation screen was 0.52, again indicating high significance.

[3] = biological target: p38 (Homo sapiens, UniProt Q16539); experiment: DSF against p38 (selectivity panel of MAPK cascade members); assay type: binding; conditions: for ΔΔTm (p38): difference between the TAOK2 ΔTm and that of p38, DSF
Sequence of p38 (Q16539 whole entry): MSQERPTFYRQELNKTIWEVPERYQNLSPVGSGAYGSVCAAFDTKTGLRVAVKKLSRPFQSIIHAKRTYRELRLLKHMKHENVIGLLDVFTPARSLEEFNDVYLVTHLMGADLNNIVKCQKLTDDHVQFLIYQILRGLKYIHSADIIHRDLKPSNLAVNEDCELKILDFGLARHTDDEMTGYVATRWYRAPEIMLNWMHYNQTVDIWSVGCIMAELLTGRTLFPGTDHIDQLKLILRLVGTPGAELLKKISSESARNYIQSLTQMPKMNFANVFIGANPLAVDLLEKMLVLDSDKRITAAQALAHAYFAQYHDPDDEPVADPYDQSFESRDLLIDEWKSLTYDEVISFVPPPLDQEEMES
Protocol: as §1
(§2) The difference between the TAOK2 ΔTm and that of p38 and ASK1 was determined. […] The majority of the other compounds were also preferentially inhibitory toward TAOK2. Of the 13 compounds, SW034538, SW172006 and SW083688 were cross-verified for selectivity by performing a specificity screen against 45 kinases commercially at Eurofins Cerep, Inc. (FIG. 3).

[4] = biological target: T2, ASK1 (Homo sapiens, UniProt Q99683); experiment: DSF against ASK1 (selectivity panel of MAPK cascade members); assay type: binding; conditions: difference between the TAOK2 ΔTm and that of ASK1, DSF
T2 sequence (Q99683 1-1374): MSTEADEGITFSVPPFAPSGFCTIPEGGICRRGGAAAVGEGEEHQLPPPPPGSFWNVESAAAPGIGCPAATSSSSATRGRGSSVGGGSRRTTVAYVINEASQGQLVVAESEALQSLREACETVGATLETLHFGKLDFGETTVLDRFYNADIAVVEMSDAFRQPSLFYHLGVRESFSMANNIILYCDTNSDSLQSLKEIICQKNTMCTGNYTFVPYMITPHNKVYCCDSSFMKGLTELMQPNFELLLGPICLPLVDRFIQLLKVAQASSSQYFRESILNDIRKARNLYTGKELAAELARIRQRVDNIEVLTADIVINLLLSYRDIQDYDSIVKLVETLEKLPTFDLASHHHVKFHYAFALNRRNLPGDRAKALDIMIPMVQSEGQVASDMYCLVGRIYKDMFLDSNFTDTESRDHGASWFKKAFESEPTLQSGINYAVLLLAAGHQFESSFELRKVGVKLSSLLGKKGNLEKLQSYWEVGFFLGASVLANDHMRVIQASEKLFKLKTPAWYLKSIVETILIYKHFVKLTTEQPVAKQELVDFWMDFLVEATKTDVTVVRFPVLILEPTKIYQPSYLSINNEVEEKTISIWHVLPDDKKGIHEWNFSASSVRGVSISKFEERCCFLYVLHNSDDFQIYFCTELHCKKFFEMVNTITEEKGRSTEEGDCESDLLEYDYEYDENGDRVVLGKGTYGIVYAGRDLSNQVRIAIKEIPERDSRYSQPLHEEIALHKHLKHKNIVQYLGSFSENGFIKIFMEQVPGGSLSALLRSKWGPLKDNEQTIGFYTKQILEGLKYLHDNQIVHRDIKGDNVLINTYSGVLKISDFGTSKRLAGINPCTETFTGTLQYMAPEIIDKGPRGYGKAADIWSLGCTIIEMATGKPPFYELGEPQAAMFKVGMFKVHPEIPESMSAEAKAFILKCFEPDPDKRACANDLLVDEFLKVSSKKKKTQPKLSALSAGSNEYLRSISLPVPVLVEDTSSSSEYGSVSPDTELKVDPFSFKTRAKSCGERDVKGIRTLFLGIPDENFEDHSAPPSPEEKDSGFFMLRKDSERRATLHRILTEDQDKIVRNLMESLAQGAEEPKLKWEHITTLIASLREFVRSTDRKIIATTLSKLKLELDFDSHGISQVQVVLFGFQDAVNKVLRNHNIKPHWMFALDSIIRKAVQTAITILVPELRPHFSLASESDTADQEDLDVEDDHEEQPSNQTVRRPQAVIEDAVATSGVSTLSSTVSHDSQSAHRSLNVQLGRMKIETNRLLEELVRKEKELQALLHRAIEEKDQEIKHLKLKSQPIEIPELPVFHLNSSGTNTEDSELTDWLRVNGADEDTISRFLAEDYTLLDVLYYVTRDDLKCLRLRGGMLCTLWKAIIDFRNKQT
Protocol: as §1, §2

## CCc1ccccc1Nc1ncc(-c2sc(NC(C)=O)nc2C)s1 [SW034513]
[1]
  ΔTm: 0.1 °C
[2]
  IC50: 3 µM

## O=C(NCC1COc2ccccc2O1)c1ccc2c(=O)n(Cc3ccco3)c(=S)[nH]c2c1 (stereo not shown) [SW083604]
[1]
  ΔTm: 1.2 °C
[3]; DSF cross-reactivity with p38
  ΔTm with respect to p38: 0.9 °C
[3]
  ΔΔTm (p38): 0.3 °C
[4]
  ΔΔTm (ASK1): 1.1 °C
[2]
  IC50: 0.6 µM

## Cc1ccc(NCCCC(=O)N/N=C/c2cc(Br)cc(Br)c2O)cc1 [SW106178]
[1]
  ΔTm: 1.6 °C
[3]
  ΔΔTm (p38): 1.3 °C
[4]
  ΔΔTm (ASK1): 1.2 °C
[2]
  IC50: 6 µM

## Cc1cccc(NC(=S)N/N=C/c2c[nH]c3ccccc23)c1 [SW109820]
[1]
  ΔTm: 0.5 °C
[2]
  IC50: 1 µM
